What was measured:
barley = assay: Herbicidal bioassay, barley (% necrosis); assay type: in vivo
Summary of the method: (§1)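 Lolium perenne, barley, peas and Chinese cabbage at 2-4 true leaf stage sprayed simultaneously with a Potter tower, compounds in DMSO at six concentrations (0.05% to 0.0001%). Phytotoxicity scored as % necrosis per EPPO PP1/135 at set intervals; five replicates per treatment and species; DMSO and water controls.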

peas = assay: Herbicidal bioassay, peas (% necrosis); assay type: in vivo
Summary of the method: as §1

## CC(=O)OCC(C)Oc1ccc(Oc2ccc(C(F)(F)F)cn2)cc1 (stereo not drawn) [Compound 63, 2-[4-[[5-(Trifluoromethyl)-2-pyridyl]oxy]phenoxy]propyl acetate]
barley; Dose 0.000001, Day 0
  Sum of % necrosis in barley: C (less than 50% necrosis)
barley; Dose 0.000001, Day 1
  Sum of % necrosis in barley: C (less than 50% necrosis)
barley; Dose 0.000001, Day 3
  Sum of % necrosis in barley: C (less than 50% necrosis)
barley; Dose 0.000001, Day 7
  Sum of % necrosis in barley: C (less than 50% necrosis)
barley; Dose 0.000001, Day 10
  Sum of % necrosis in barley: C (less than 50% necrosis)
barley; Dose 0.000001, Day 14
  Sum of % necrosis in barley: C (less than 50% necrosis)
barley; Dose 0.000001, Day 21
  Sum of % necrosis in barley: C (less than 50% necrosis)
barley; Dose 0.000005, Day 0
  Sum of % necrosis in barley: C (less than 50% necrosis)
barley; Dose 0.000005, Day 1
  Sum of % necrosis in barley: C (less than 50% necrosis)
barley; Dose 0.000005, Day 3
  Sum of % necrosis in barley: C (less than 50% necrosis)
barley; Dose 0.000005, Day 7
  Sum of % necrosis in barley: C (less than 50% necrosis)
barley; Dose 0.000005, Day 10
  Sum of % necrosis in barley: C (less than 50% necrosis)
barley; Dose 0.000005, Day 14
  Sum of % necrosis in barley: C (less than 50% necrosis)
barley; Dose 0.000005, Day 21
  Sum of % necrosis in barley: C (less than 50% necrosis)
barley; Dose 0.00001, Day 0
  Sum of % necrosis in barley: C (less than 50% necrosis)
barley; Dose 0.00001, Day 1
  Sum of % necrosis in barley: C (less than 50% necrosis)
barley; Dose 0.00001, Day 3
  Sum of % necrosis in barley: C (less than 50% necrosis)
barley; Dose 0.00001, Day 7
  Sum of % necrosis in barley: C (less than 50% necrosis)
barley; Dose 0.00001, Day 10
  Sum of % necrosis in barley: C (less than 50% necrosis)
barley; Dose 0.00001, Day 14
  Sum of % necrosis in barley: C (less than 50% necrosis)
barley; Dose 0.00001, Day 21
  Sum of % necrosis in barley: C (less than 50% necrosis)
barley; Dose 0.00005, Day 0
  Sum of % necrosis in barley: C (less than 50% necrosis)
barley; Dose 0.00005, Day 1
  Sum of % necrosis in barley: C (less than 50% necrosis)
barley; Dose 0.00005, Day 3
  Sum of % necrosis in barley: C (less than 50% necrosis)
barley; Dose 0.00005, Day 7
  Sum of % necrosis in barley: C (less than 50% necrosis)
barley; Dose 0.00005, Day 10
  Sum of % necrosis in barley: C (less than 50% necrosis)
barley; Dose 0.00005, Day 14
  Sum of % necrosis in barley: B (50%-80% necrosis)
barley; Dose 0.00005, Day 21
  Sum of % necrosis in barley: B (50%-80% necrosis)
barley; Dose 0.0001, Day 0
  Sum of % necrosis in barley: C (less than 50% necrosis)
barley; Dose 0.0001, Day 1
  Sum of % necrosis in barley: C (less than 50% necrosis)
barley; Dose 0.0001, Day 3
  Sum of % necrosis in barley: C (less than 50% necrosis)
barley; Dose 0.0001, Day 7
  Sum of % necrosis in barley: C (less than 50% necrosis)
barley; Dose 0.0001, Day 10
  Sum of % necrosis in barley: C (less than 50% necrosis)
barley; Dose 0.0001, Day 14
  Sum of % necrosis in barley: C (less than 50% necrosis)
barley; Dose 0.0001, Day 21
  Sum of % necrosis in barley: C (less than 50% necrosis)
barley; Dose 0.0005, Day 0
  Sum of % necrosis in barley: C (less than 50% necrosis)
barley; Dose 0.0005, Day 1
  Sum of % necrosis in barley: C (less than 50% necrosis)
barley; Dose 0.0005, Day 3
  Sum of % necrosis in barley: C (less than 50% necrosis)
barley; Dose 0.0005, Day 7
  Sum of % necrosis in barley: C (less than 50% necrosis)
barley; Dose 0.0005, Day 10
  Sum of % necrosis in barley: C (less than 50% necrosis)
barley; Dose 0.0005, Day 14
  Sum of % necrosis in barley: C (less than 50% necrosis)
barley; Dose 0.0005, Day 21
  Sum of % necrosis in barley: C (less than 50% necrosis)
peas; Dose 0.000001, Day 0
  Sum of % necrosis in Peas: C (less than 50% necrosis)
peas; Dose 0.000001, Day 1
  Sum of % necrosis in Peas: C (less than 50% necrosis)
peas; Dose 0.000001, Day 3
  Sum of % necrosis in Peas: C (less than 50% necrosis)
peas; Dose 0.000001, Day 7
  Sum of % necrosis in Peas: C (less than 50% necrosis)
peas; Dose 0.000001, Day 10
  Sum of % necrosis in Peas: B (50%-80% necrosis)
peas; Dose 0.000001, Day 14
  Sum of % necrosis in Peas: B (50%-80% necrosis)
peas; Dose 0.000001, Day 21
  Sum of % necrosis in Peas: A (over 80% necrosis)
peas; Dose 0.000005, Day 0
  Sum of % necrosis in Peas: C (less than 50% necrosis)
peas; Dose 0.000005, Day 1
  Sum of % necrosis in Peas: C (less than 50% necrosis)
peas; Dose 0.000005, Day 3
  Sum of % necrosis in Peas: C (less than 50% necrosis)
peas; Dose 0.000005, Day 7
  Sum of % necrosis in Peas: C (less than 50% necrosis)
peas; Dose 0.000005, Day 10
  Sum of % necrosis in Peas: B (50%-80% necrosis)
peas; Dose 0.000005, Day 14
  Sum of % necrosis in Peas: B (50%-80% necrosis)
peas; Dose 0.000005, Day 21
  Sum of % necrosis in Peas: A (over 80% necrosis)
peas; Dose 0.00001, Day 0
  Sum of % necrosis in Peas: C (less than 50% necrosis)
peas; Dose 0.00001, Day 1
  Sum of % necrosis in Peas: C (less than 50% necrosis)
peas; Dose 0.00001, Day 3
  Sum of % necrosis in Peas: C (less than 50% necrosis)
peas; Dose 0.00001, Day 7
  Sum of % necrosis in Peas: C (less than 50% necrosis)
peas; Dose 0.00001, Day 10
  Sum of % necrosis in Peas: B (50%-80% necrosis)
peas; Dose 0.00001, Day 14
  Sum of % necrosis in Peas: B (50%-80% necrosis)
peas; Dose 0.00001, Day 21
  Sum of % necrosis in Peas: A (over 80% necrosis)
peas; Dose 0.00005, Day 0
  Sum of % necrosis in Peas: C (less than 50% necrosis)
peas; Dose 0.00005, Day 1
  Sum of % necrosis in Peas: C (less than 50% necrosis)
peas; Dose 0.00005, Day 3
  Sum of % necrosis in Peas: C (less than 50% necrosis)
peas; Dose 0.00005, Day 7
  Sum of % necrosis in Peas: B (50%-80% necrosis)
peas; Dose 0.00005, Day 10
  Sum of % necrosis in Peas: A (over 80% necrosis)
peas; Dose 0.00005, Day 14
  Sum of % necrosis in Peas: A (over 80% necrosis)
peas; Dose 0.00005, Day 21
  Sum of % necrosis in Peas: A (over 80% necrosis)
peas; Dose 0.0001, Day 0
  Sum of % necrosis in Peas: C (less than 50% necrosis)
peas; Dose 0.0001, Day 1
  Sum of % necrosis in Peas: C (less than 50% necrosis)
peas; Dose 0.0001, Day 3
  Sum of % necrosis in Peas: C (less than 50% necrosis)
peas; Dose 0.0001, Day 7
  Sum of % necrosis in Peas: C (less than 50% necrosis)
peas; Dose 0.0001, Day 10
  Sum of % necrosis in Peas: C (less than 50% necrosis)
peas; Dose 0.0001, Day 14
  Sum of % necrosis in Peas: B (50%-80% necrosis)
peas; Dose 0.0001, Day 21
  Sum of % necrosis in Peas: B (50%-80% necrosis)
peas; Dose 0.0005, Day 0
  Sum of % necrosis in Peas: C (less than 50% necrosis)
peas; Dose 0.0005, Day 1
  Sum of % necrosis in Peas: C (less than 50% necrosis)
peas; Dose 0.0005, Day 3
  Sum of % necrosis in Peas: C (less than 50% necrosis)
peas; Dose 0.0005, Day 7
  Sum of % necrosis in Peas: C (less than 50% necrosis)
peas; Dose 0.0005, Day 10
  Sum of % necrosis in Peas: B (50%-80% necrosis)
peas; Dose 0.0005, Day 14
  Sum of % necrosis in Peas: B (50%-80% necrosis)
peas; Dose 0.0005, Day 21
  Sum of % necrosis in Peas: B (50%-80% necrosis)
